Columns and labels:
Format in all cases: in vivo
pigs [1] = assay: Fourth experiment: 1500 pigs in four groups fed AFC1-AFC4, distribution in meat quality classes
Experimental: (§1) In most countries of the world, the quality of the carcass (without innards and blood) is determined as of muscle area, fat mm at back, total analysis of fat content etc. for determining the price of the carcass per kg warm or cold carcass weight (depending on country). For this purpose, the animals are scanned in the slaughtering line by means of sensors or image-giving techniques, and the proportion of muscles and the thickness of the backbone are measured and converted into an equation which then calculates the proportion of lean meat in the entire carcass. In the EU, the carcasses can be assigned to different meat quality groups according to the following classification scheme: • S=Highest quality=>60.85% lean-meat • E=Premium Quality=58.75% lean-meat • U=High Quality=>55.9% lean-meat • R=Medium Quality=>53.9% lean-meat • O=Low Quality=>51.1% lean-meat • P=very low Quality=<51.1% lean-meat
As a rule, during the last 4-week before slaughter day when beta adrenergic agonists are typically administered, an animal feed is administered which not only has a higher protein content but also a higher proportion of muscle-binding amino acids (e.g., lysine). For example, a manufacturer of a beta adrenergic agonist prescribes that the content of the limiting amino acid lysine and threonine in the feed must be about 30% higher than under “standard” conditions when the beta adrenergic agonist is administered. It is, however, known that only 30% of the amino acids added to the feed are resorbed and metabolized, the rest being lost.
The test was performed with 1500 pigs divided into four groups 1-4, each group comprising 375 pigs. The pigs were held in 100 units of 15 animals per unit. Different groups of pigs were fed with feeds of different compositions. The following table illustrates meat quality indicators.
(§2) The following animal feed compositions were administered: • AFC1: Corn, maize, soybean meal, vitamine, enzyme and mineral mixture comprising: 17% protein 0.8% lysine • AFC2: Corn, maize, Corn, maize, soybean meal, vitamine, enzyme and mineral mixture comprising: 17% protein, 0.8% lysine and 1 mg isoquinoline alkaloid/kg feed (mainly sanguinarine) • AFC3: Corn, maize, soybean meal, vitamine, enzyme and mineral mixture comprising: 19% protein, 1% lysine and a beta adrenergic agonist (ractopamin as “Paylean®” in recommended dosage (®=reg. trademark of Eli Lilly and Co.) • AFC4: Corn, maize, soybean meal, vitamine, enzyme and mineral mixture comprising: 17% protein, 0.9% lysine, 1 mg isoquinoline alkaloid (mainly sanguinarine)/kg feed and a beta adrenergic agonist (ractopamin as “Paylean®” Paylean in recommended dosage)

pigs [2] = assay: Second experiment: 4 groups of 50 pigs fed different food and additive combinations for 4 weeks until slaughter day
From the text: In the second experimental test, 4 groups of 50 pigs were fed with different food and additive combinations for 4 weeks until slaughter day as presented in the table below. The Isoquinoline alkaloids in the feed of groups 2 and 3 mainly consisted of sanguinarine.

pigs [3] = assay: Third experiment: meat quality classes of 120 pigs per group fed for the last four weeks until slaughter day
Experimental: The following table illustrates meat quality indicators obtained for 120 pigs fed for the last four weeks until slaughter day added with a beta adrenergic agonist at recommended dosages of 7.5 mg/kg feed and having a protein enriched feed formulation comparing to 120 other pigs fed during the same time period with the same feed which in addition the beta adrenergic agonist is also added with isoquinoline alkaloids like sanguinarin.
as §1

pigs [4] = assay: Sixth experiment: test four repeated with 1310 pigs of a further animal farm
Experimental: as §1, §2
Test four was repeated with 1310 pigs of a further animal farm divided into four groups 1-4, each group comprising 330 pigs. The pigs were held in 11 units of 30 animals. Different groups of pigs were fed with feeds of different compositions as described for the fourth experiment. The following table illustrates meat quality indicators.

pigs [5] = assay: Fifth experiment: test four repeated with 1700 pigs of a different farm
Experimental: as §1, §2
Test four was repeated with 1700 pigs of a different farm divided into four groups 1-4, each group comprising 425 pigs. The pigs were held in units of 25 animals. Different groups of pigs were fed with feeds of different compositions as described for the fourth experiment. The following table illustrates meat quality indicators.

[6] = class O >51.1% lean-meat, feeds AFC2, AFC3, AFC4, control 4
[7] = class E >58.75 % lean-meat, 120 pigs per group
[8] = class O >51.10 % lean-meat, 120 pigs per group
[9] = class P <51.10 % lean-meat, 120 pigs per group
[10] = class R >53.90 % lean-meat, 120 pigs per group
[11] = class U >55.90 % lean-meat, 120 pigs per group
[12] = class P <51.1% lean-meat, feeds AFC2, AFC3, AFC4, control 0

CC(CCc1ccc(O)cc1)NCC(O)c1ccc(O)cc1 (stereo not drawn) [ractopamine]
Distribution of slaughtered pigs in meat quality class E (pigs [1]; class E >58.75% lean-meat, feeds AFC2, AFC3, AFC4, control 35): 39%
Distribution of slaughtered pigs in meat quality class O (pigs [1]; [6]): 1%
Distribution of slaughtered pigs in meat quality class P (pigs [1]; class P <51.1% lean-meat, feeds AFC2, AFC3, AFC4, control 1): 0%
Distribution of slaughtered pigs in meat quality class R (pigs [1]; class R >53.9% lean-meat, feeds AFC2, AFC3, AFC4, control 10): 2%
Distribution of slaughtered pigs in meat quality class S (pigs [1]; class S >60.85% lean-meat, Group 2 feed AFC2, Group 3 AFC3, Group 4 AFC4, 375 pigs per group, control 35): 38%
Distribution of slaughtered pigs in meat quality class U (pigs [1]; class U >55.9% lean-meat, feeds AFC2, AFC3, AFC4, control 15): 20%
% of all pigs distributed in classes S and E (pigs [1]; fourth experiment, control 70%): 77%
Feed conversion ratio (pigs [2]; 4 weeks until slaughter, isoquinoline alkaloids 1 mg/kg feed and/or ractopamin 7.5 mg/kg feed, control 2.78): 2.62
Daily weight gain (pigs [2]; 4 weeks until slaughter, isoquinoline alkaloids 1 mg/kg feed and/or ractopamin 7.5 mg/kg feed, control 753): 852 g
live mass at slaughter day (pigs [2]; after 4 weeks, isoquinoline alkaloids 1 mg/kg feed and/or ractopamin 7.5 mg/kg feed, soybean 15% (group 2), 17% (group 3), 20% (group 4), control 118): 125.5 kg
Fraction lean meat (pigs [2]; at slaughter, isoquinoline alkaloids 1 mg/kg feed and/or ractopamin 7.5 mg/kg feed, control 54.95): 58.5%
performance (daily weight gain, feed utilization, lean meat content) compared with the control group, in words (pigs [2]; second experiment, groups 2-4 versus group 1): significantly improves performance and increases the lean meat content and the feed utilization
% of all pigs in meat quality class E (pigs [3]; [7]): 41%
Number of pigs in meat quality class E (pigs [3]; [7]): 49
% of all pigs in meat quality class O (pigs [3]; [8]): 1%
Number of pigs in meat quality class O (pigs [3]; [8]): 1
% of all pigs in meat quality class P (pigs [3]; [9]): 0%
Number of pigs in meat quality class P (pigs [3]; [9]): 0
% of all pigs in meat quality class R (pigs [3]; [10]): 6%
Number of pigs in meat quality class R (pigs [3]; [10]): 7
% of all pigs in meat quality class S (pigs [3]; class S >60.85 % lean-meat, 120 pigs per group): 33%
Number of pigs in meat quality class S (pigs [3]; class S >60.85 % lean-meat, 120 pigs per group, ractopamin 7.5 mg/kg feed, protein enriched feed): 40
% of all pigs in meat quality class U (pigs [3]; [11]): 19%
Number of pigs in meat quality class U (pigs [3]; [11]): 23
numbers of S and E carcass classes as highest value carcasses (pigs [3]; third experiment, sum of classes S and E): 74%
Distribution of slaughtered pigs in meat quality class E (pigs [4]; class E >58.75% lean-meat, feeds AFC2, AFC3, AFC4, control 33): 38%
Distribution of slaughtered pigs in meat quality class O (pigs [4]; [6]): 1%
Distribution of slaughtered pigs in meat quality class P (pigs [4]; [12]): 0%
Distribution of slaughtered pigs in meat quality class R (pigs [4]; class R >53.9% lean-meat, feeds AFC2, AFC3, AFC4, control 11): 3%
Distribution of slaughtered pigs in meat quality class S (pigs [4]; class S >60.85% lean-meat, Group 2 feed AFC2, Group 3 AFC3, Group 4 AFC4, 330 pigs per group, control 30): 40%
Distribution of slaughtered pigs in meat quality class U (pigs [4]; class U >55.9% lean-meat, feeds AFC2, AFC3, AFC4, control 22): 18%
% of all pigs (carcasses classified as S and E quality) (pigs [4]; sixth experiment, control 63%): 78%
Distribution of slaughtered pigs in meat quality class E (pigs [5]; class E >58.75% lean-meat, feeds AFC2, AFC3, AFC4, control 30): 35%
Distribution of slaughtered pigs in meat quality class O (pigs [5]; [6]): 2%
Distribution of slaughtered pigs in meat quality class P (pigs [5]; [12]): 0%
Distribution of slaughtered pigs in meat quality class R (pigs [5]; class R >53.9% lean-meat, feeds AFC2, AFC3, AFC4, control 15): 8%
Distribution of slaughtered pigs in meat quality class S (pigs [5]; class S >60.85% lean-meat, Group 2 feed AFC2, Group 3 AFC3, Group 4 AFC4, 425 pigs per group, control 26): 40%
Distribution of slaughtered pigs in meat quality class U (pigs [5]; class U >55.9% lean-meat, feeds AFC2, AFC3, AFC4, control 25): 15%
% of all pigs (carcasses classified as S and E quality) (pigs [5]; fifth experiment, control 56%): 75%

— patent US20200015498A1, “ANIMAL FEED WITH BETA ADRENERGIC AGONIST AND ISOQUINOLINE ALKALOID” (priority 2017, published 2020)
